Laboratory results taken from patent US9822147B2, “Methods of treating ophthalmic diseases using NPR-B agonists” (priority 2009, dated 2017).
Read-outs that look alike come from different tables or passages of the source. Numbered stars: 1 amine (or outer) side, 2 acyl side, 3 side chain; on linkers, the order of the positions; unused ones are H or OH. Square brackets hold non-standard residues; d marks the D form. Peptide text beside a SMILES is read from it. * marks the point of attachment. Phe(4-Br) = N[C@@H](Cc1ccc(Br)cc1)C(=O)O; Pro(4R-NH2) = N[C@H]1CN[C@H](C(=O)O)C1; dLys(Me2) = CN(C)CCCC[C@@H](N)C(=O)O; dOrn(Me2) = CN(C)CCC[C@@H](N)C(=O)O; X2 = O=C([C@H]1CCCN([*:1])C1)[*:2]; X1 = CCCCCCCCN1CCC[C@H](C(=O)*)C1; dDap(Me2) = CN(C)C[C@@H](N)C(=O)O; Hyp = O=C(O)[C@@H]1C[C@@H](O)CN1; 3Thi = N[C@@H](Cc1ccsc1)C(=O)O; NHcycloheptyl = C1CCCC(N*)CC1; NMeL = CN[C@@H](CC(C)C)C(=O)O; Octanoyl = CCCCCCCC(=O)*; Api = NC1(C(=O)O)CCNCC1; tBu = CC(C)(C)*

Biological target: T1, NPR-B (Homo sapiens, UniProt P20594)
T1 construct: a functional assay using endogenously NPR-B expressing GTM-3 cells; endogenous in cells; host or cells: GTM-3 (human glaucoma trabecular meshwork cells)
T1 sequence (P20594 23-1047): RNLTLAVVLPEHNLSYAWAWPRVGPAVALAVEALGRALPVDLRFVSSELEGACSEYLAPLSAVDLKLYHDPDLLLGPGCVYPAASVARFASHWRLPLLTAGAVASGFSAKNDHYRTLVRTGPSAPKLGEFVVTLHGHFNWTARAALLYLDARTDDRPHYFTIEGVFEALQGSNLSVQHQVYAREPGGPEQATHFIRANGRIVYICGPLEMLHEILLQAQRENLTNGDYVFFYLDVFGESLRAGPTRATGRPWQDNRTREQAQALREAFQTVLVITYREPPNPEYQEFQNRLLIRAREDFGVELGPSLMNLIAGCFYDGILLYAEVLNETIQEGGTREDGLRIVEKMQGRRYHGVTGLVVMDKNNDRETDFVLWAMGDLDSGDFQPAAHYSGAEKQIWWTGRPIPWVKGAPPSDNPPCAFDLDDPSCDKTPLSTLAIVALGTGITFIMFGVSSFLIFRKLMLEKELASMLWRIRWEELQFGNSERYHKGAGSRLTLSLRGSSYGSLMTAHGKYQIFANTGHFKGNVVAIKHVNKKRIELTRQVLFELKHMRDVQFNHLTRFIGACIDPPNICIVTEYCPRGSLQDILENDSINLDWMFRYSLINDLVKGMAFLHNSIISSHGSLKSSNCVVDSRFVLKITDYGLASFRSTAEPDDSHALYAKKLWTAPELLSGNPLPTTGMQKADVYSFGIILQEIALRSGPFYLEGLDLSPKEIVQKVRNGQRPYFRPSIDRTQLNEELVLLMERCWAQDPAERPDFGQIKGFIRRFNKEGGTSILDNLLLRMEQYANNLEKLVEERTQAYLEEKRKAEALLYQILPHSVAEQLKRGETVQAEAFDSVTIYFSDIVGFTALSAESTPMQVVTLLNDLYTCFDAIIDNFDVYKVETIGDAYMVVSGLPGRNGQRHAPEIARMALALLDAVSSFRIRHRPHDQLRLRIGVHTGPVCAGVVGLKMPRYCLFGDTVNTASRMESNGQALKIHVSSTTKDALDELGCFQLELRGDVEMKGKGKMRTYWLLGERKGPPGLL
Experiment: NPR-B induced production of cyclic GMP in human glaucoma trabecular meshwork cells (GTM-3)
Type: cell-based

[1] = group by EC50 and Emax (CNP = 100%), Table 4, read-out: Activity (group), NPR-B activation assayed with GTM-3 cells

CCCCCCCC(=O)N[C@H](C)C(=O)N[C@@H](Cc1ccccc1)C(=O)N[C@H](CCCNC(=N)N)C(=O)N[C@@H](CC(C)C)C(=O)N1C[C@H](O)C[C@H]1C(=O)N[C@@H](CC(C)(C)C)C(=O)N[C@@H](CC(=O)O)C(=O)N[C@@H](CCCNC(=N)N)C(=O)N[C@H](C(N)=O)[C@@H](C)CC [JAL-1225, Occ-ala-Phe-arg-Leu-Hyp-Npg-Asp-Arg-Ile-NH2] (HELM PEPTIDE1{[CCCCCCCC(=O)[*:2]].[dA].F.[dR].L.[Hyp].[CC(C)(C)C[C@H](N[*:1])C(=O)[*:2]].D.R.I.[am]}$$$$V2.0)
EC50 [1]: < 1000 nM

CCCCCCCC(=O)N1CCCC[C@@H]1C(=O)N[C@@H](Cc1ccccc1)C(=O)N[C@H](CCCNC(=N)N)C(=O)N[C@@H](CC(C)C)C(=O)N1C[C@H](O)C[C@H]1C(=O)N(C)[C@@H](CC(C)C)C(=O)N[C@@H](CC(=O)O)C(=O)N[C@@H](CCCNC(=N)N)C(=O)N[C@H](C(N)=O)[C@@H](C)CC [JAL-1087, Occ-pip-Phe-arg-Leu-Hyp-Nml-Asp-Arg-Ile-NH2] (HELM PEPTIDE1{[CCCCCCCC(=O)[*:2]].[O=C([C@H]1CCCCN1[*:1])[*:2]].F.[dR].L.[Hyp].[meL].D.R.I.[am]}$$$$V2.0)
EC50 [1]: < 1000 nM

CCCCCCCC(=O)N1CCC[C@H](C(=O)N[C@@H](Cc2ccccc2)C(=O)N[C@H](CCCN(C)C)C(=O)N[C@@H](CC(C)C)C(=O)N2C[C@H](O)C[C@H]2C(=O)N(C)[C@@H](CC(C)C)C(=O)N[C@H](C(=O)N[C@@H](CCCNC(=N)N)C(=O)N[C@H](C(N)=O)[C@@H](C)CC)C(C)C)C1 [JAL-1782, Occ-Sni-Phe-orn(Me2)-Leu-Hyp-Nml-Val-Arg-Ile-NH2] (Octanoyl-[X2]F[dOrn(Me2)]L[Hyp][NMeL]VRI-NH2)
EC50 [1]: < 1000 nM

CCCCCCCCN1CCC[C@H](C(=O)N[C@@H](Cc2ccccc2)C(=O)N[C@H](CN(C)C)C(=O)N[C@@H](CC(C)C)C(=O)N2C[C@H](N)C[C@H]2C(=O)N(C)[C@@H](CC(C)C)C(=O)N[C@H](C(=O)N[C@@H](CCCNC(=N)N)C(=O)N[C@H](C(N)=O)[C@@H](C)CC)C(C)C)C1 [JAL-1405, Oct-Sni-Phe-dap(Me2)-Leu-Tap-Nml-Val-Arg-Ile-NH2] (X1-F[dDap(Me2)]L[Pro(4R-NH2)][NMeL]VRI-NH2)
EC50 [1]: < 1000 nM

CC[C@H](C)[C@H](NC(=O)[C@H](CCCNC(=N)N)NC(=O)[C@H](CC(=O)O)NC(=O)[C@H](CC(C)C)N(C)C(=O)[C@@H]1C[C@@H](O)CN1C(=O)[C@H](CC(C)C)NC(=O)[C@@H](CC(C)C)NC(=O)[C@H](Cc1ccccc1)NC(=O)[C@H]1CCCN(C(=O)CCCCc2ccccc2)C1)C(N)=O [JAL-1606, 1320-Sni-Phe-leu-Leu-Hyp-Nml-Asp-Arg-Ile-NH2] (HELM PEPTIDE1{[O=C(CCCCc1ccccc1)[*:2]].[O=C([C@H]1CCCN([*:1])C1)[*:2]].F.[dL].L.[Hyp].[meL].D.R.I.[am]}$$$$V2.0)
EC50 [1]: < 1000 nM

CCCCCCCC(=O)N1CCC[C@H](C(=O)N[C@@H](Cc2ccccc2)C(=O)N[C@H](CCCCN(C)C)C(=O)N[C@@H](CC(C)C)C(=O)N2C[C@H](O)C[C@H]2C(=O)N(C)[C@@H](CC(C)C)C(=O)N[C@H](C(=O)N[C@@H](CCCNC(=N)N)C(=O)NC2CCCCCC2)C(C)C)C1 [JAL-1779, Occ-Sni-Phe-lys(Me2)-Leu-Hyp-Nml-Val-Arg-Che] (Octanoyl-[X2]F[dLys(Me2)]L[Hyp][NMeL]VR-NHcycloheptyl)
EC50 [1]: < 1000 nM

CCCCCCCC(=O)N1CCC[C@H](C(=O)N[C@@H](Cc2ccccc2)C(=O)N[C@H](CCCCN)C(=O)N[C@@H](CC(C)C)C(=O)N2C[C@H](O)C[C@H]2C(=O)N(C)[C@@H](CC(C)C)C(=O)N[C@@H](CC(=O)O)C(=O)N[C@@H](CCCNC(=N)N)C(=O)N[C@H](C(N)=O)[C@@H](C)CC)C1 [JAL-1254, Occ-Sni-Phe-lys-Leu-Hyp-Nml-Asp-Arg-Ile-NH2] (HELM PEPTIDE1{[CCCCCCCC(=O)[*:2]].[O=C([C@H]1CCCN([*:1])C1)[*:2]].F.[dK].L.[Hyp].[meL].D.R.I.[am]}$$$$V2.0)
EC50 [1]: < 1000 nM

CCCCCCCC(=O)N1CCC[C@H](C(=O)N[C@@H](Cc2ccc(Br)cc2)C(=O)N[C@H](CC(C)C)C(=O)N[C@@H](CC(C)C)C(=O)N2C[C@H](O)C[C@H]2C(=O)N(C)[C@@H](CC(C)C)C(=O)N[C@@H](CC(=O)O)C(=O)N[C@@H](CCCNC(=N)N)C(=O)N[C@H](C(N)=O)[C@@H](C)CC)C1 [JAL-1619, Occ-Sni-Pbf-leu-Leu-Hyp-Nml-Asp-Arg-Ile-NH2] (Octanoyl-[X2][Phe(4-Br)][dL]L[Hyp][NMeL]DRI-NH2)
EC50 [1]: < 1000 nM

CCCCCCCC(=O)N1CCC[C@H](C(=O)N[C@@H](Cc2ccsc2)C(=O)N[C@H](CC(C)C)C(=O)N[C@@H](CC(C)C)C(=O)N2C[C@H](O)C[C@H]2C(=O)N(C)[C@@H](CC(C)C)C(=O)N[C@@H](CC(=O)O)C(=O)N[C@@H](CCCNC(=N)N)C(=O)N[C@H](C(N)=O)[C@@H](C)CC)C1 [JAL-1620, Occ-Sni-Thk-leu-Leu-Hyp-Nml-Asp-Arg-Ile-NH2] (Octanoyl-[X2][3Thi][dL]L[Hyp][NMeL]DRI-NH2)
EC50 [1]: < 1000 nM

CCCCCCCC(=O)N1CCC[C@H](C(=O)N[C@@H](Cc2ccccc2)C(=O)N[C@H](CN(C)C)C(=O)N[C@@H](CC(C)C)C(=O)N2C[C@H](N)C[C@H]2C(=O)N(C)[C@@H](CC(C)C)C(=O)N[C@H](C(=O)N[C@@H](CCCNC(=N)N)C(=O)N[C@H](C(N)=O)[C@@H](C)CC)C(C)C)C1 [JAL-1403, Occ-Sni-Phe-dap(Me2)-Leu-Tap-Nml-Val-Arg-Ile-NH2] (Octanoyl-[X2]F[dDap(Me2)]L[Pro(4R-NH2)][NMeL]VRI-NH2)
EC50 [1]: < 1000 nM

CCCCCCCC(=O)N1CCC[C@@H]1C(=O)N[C@@H](Cc1ccccc1)C(=O)N[C@H](CC(C)C)C(=O)N[C@@H](CC(C)C)C(=O)N1C[C@H](O)C[C@H]1C(=O)N[C@@H](CC(C)C)C(=O)N[C@@H](CC(=O)O)C(=O)N[C@@H](CCCNC(=N)N)C(=O)N[C@H](C(N)=O)[C@@H](C)CC [JAL-1053, Occ-pro-Phe-leu-Leu-Hyp-Leu-Asp-Arg-Ile-NH2] (HELM PEPTIDE1{[CCCCCCCC(=O)[*:2]].[dP].F.[dL].L.[Hyp].L.D.R.I.[am]}$$$$V2.0)
EC50 [1]: < 1000 nM

CCCCCCCCN1CCC[C@H](C(=O)N[C@@H](Cc2ccccc2)C(=O)N[C@H](CC(C)C)C(=O)N[C@@H](CC(C)C)C(=O)N2C[C@H](N)C[C@H]2C(=O)N(C)[C@@H](CC(C)C)C(=O)N[C@@H](CC(=O)O)C(=O)N[C@@H](CCCNC(=N)N)C(=O)N[C@H](C(N)=O)[C@@H](C)CC)C1 [JAL-1326, Oct-Sni-Phe-leu-Leu-Tap-Nml-Asp-Arg-Ile-NH2] (HELM PEPTIDE1{[CCCCCCCCN1CCC[C@H](C(=O)[*:2])C1].F.[dL].L.[N[C@@H]1C[C@@H](C(=O)[*:2])N([*:1])C1].[meL].D.R.I.[am]}$$$$V2.0)
EC50 [1]: < 1000 nM

CCCCCCCC(=O)N1CCC[C@H](C(=O)N[C@@H](Cc2ccccc2)C(=O)NC2(C(=O)N[C@@H](CC(C)C)C(=O)N3C[C@H](N)C[C@H]3C(=O)N(C)[C@@H](CC(C)C)C(=O)N[C@@H](CC(=O)O)C(=O)N3CCC[C@H]3C(=O)NC3CCCCCC3)CCNCC2)C1 [JAL-1602, Occ-Sni-Phe-Apc-Leu-Tap-Nml-Asp-Pro-Che] (Octanoyl-[X2]F[Api]L[Pro(4R-NH2)][NMeL]DP-NHcycloheptyl)
EC50 [1]: < 1000 nM

CCCCCCCC(=O)N[C@H](C)C(=O)N[C@@H](Cc1ccccc1)C(=O)N[C@H](CCCN)C(=O)N[C@@H](CC(C)C)C(=O)N1C[C@H](O)C[C@H]1C(=O)N(C)[C@@H](CC(C)C)C(=O)N[C@@H](CC(=O)O)C(=O)N[C@@H](CCCNC(=N)N)C(=O)N[C@H](C(N)=O)[C@@H](C)CC [JAL-1061, Occ-ala-Phe-orn-Leu-Hyp-Nml-Asp-Arg-Ile-NH2] (HELM PEPTIDE1{[CCCCCCCC(=O)[*:2]].[dA].F.[NCCC[C@@H](N[*:1])C(=O)[*:2]].L.[Hyp].[meL].D.R.I.[am]}$$$$V2.0)
EC50 [1]: < 1000 nM

CCCCCCCC(=O)N1CCC[C@H](C(=O)N[C@@H](Cc2ccccc2)C(=O)N[C@H](CSC(C)(C)C)C(=O)N[C@@H](CC(C)C)C(=O)N2C[C@H](O)C[C@H]2C(=O)N(C)[C@@H](CC(C)C)C(=O)N[C@@H](CC(=O)O)C(=O)N[C@@H](CCCNC(=N)N)C(=O)N[C@H](C(N)=O)[C@@H](C)CC)C1 [JAL-1623, Occ-Sni-Phe-ctb-Leu-Hyp-Nml-Asp-Arg-Ile-NH2] (Octanoyl-[X2]F[dC](tBu)L[Hyp][NMeL]DRI-NH2)
EC50 [1]: < 1000 nM

CCCCCCCC(=O)N[C@H](C)C(=O)N[C@@H](Cc1ccccc1)C(=O)NCC(=O)N[C@@H](CC(C)C)C(=O)N1C[C@H](N)C[C@H]1C(=O)N[C@@H](CC(C)C)C(=O)N[C@@H](CC(=O)O)C(=O)N[C@@H](CCCNC(=N)N)C(=O)N[C@H](C(N)=O)[C@@H](C)CC [JAL-1249, Occ-ala-Phe-Gly-Leu-Tap-Leu-Asp-Arg-Ile-NH2] (HELM PEPTIDE1{[CCCCCCCC(=O)[*:2]].[dA].F.G.L.[N[C@@H]1C[C@@H](C(=O)[*:2])N([*:1])C1].L.D.R.I.[am]}$$$$V2.0)
EC50: < 1000 nM
